{
  "source": "PubChem BioAssay AID2060898",
  "about": "(Molecular Pharmacology Branch, DTP, NCI, 2025);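 note: spheroids exposed to agents for seven days before viability readout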;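 for viability, T/C: 100% = DMSO vehicle control viability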",
  "tested_on": "616215-338-R-J1-PDC complex spheroid viability",
  "test": "Anticancer human tumor 616215-338-R-J1-PDC patient-derived colon adenocarcinoma cell line growth inhibition [RAS]",
  "settings": "for IC50: curve of first compound; for viability, T/C: stronger effect = lower value",
  "in_short": "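Tumour cells grown as complex spheroids with HUVEC endothelial cells and mesenchymal stem cells, treated with RAS pathway inhibitor combinations. Each agent spans half-log steps from near clinical Cmax, or 10 microM where Cmax is unknown.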",
  "data": [
    {"smiles": "C=CC(=O)N1CCN(c2nc(OCC3CCCN3C)nc3c(F)c(-c4nc(N)cc(C)c4C(F)(F)F)c(Cl)cc23)C(C)C1", "note": "(centres undefined) + CCn1c(-c2cc(N3CCN(C)CC3)cnc2C(C)OC)c2c3cc(ccc31)-c1csc(n1)CC(NC(=O)C1CC1C)C(=O)N1CCCC(N1)C(=O)OCC(C)(C)C2", "values": [
      {"measurement": "IC50", "setting": "second compound 0.000949 µM", "value": "> 1000", "unit": "nM"},
      {"measurement": "IC50", "setting": "second compound 0.003 µM", "value": "> 1000", "unit": "nM"},
      {"measurement": "IC50", "setting": "second compound 0.00949 µM", "value": "> 1000", "unit": "nM"},
      {"measurement": "IC50", "setting": "second compound 0.03 µM", "value": "< 3.16", "unit": "nM"},
      {"measurement": "IC50", "setting": "second compound 0.0949 µM", "value": "< 3.16", "unit": "nM"},
      {"measurement": "IC50", "setting": "second compound 0.3 µM", "value": "< 3.16", "unit": "nM"},
      {"measurement": "viability, T/C", "setting": "second compound 0.000949 µM, first compound 0.00316 µM", "value": 117, "unit": "%"},
      {"measurement": "viability, T/C", "setting": "second compound 0.000949 µM, first compound 0.01 µM", "value": 103, "unit": "%"},
      {"measurement": "viability, T/C", "setting": "second compound 0.000949 µM, first compound 0.0316 µM", "value": 108, "unit": "%"},
      {"measurement": "viability, T/C", "setting": "second compound 0.000949 µM, first compound 0.1 µM", "value": 110, "unit": "%"},
      {"measurement": "viability, T/C", "setting": "second compound 0.000949 µM, first compound 0.316 µM", "value": 109, "unit": "%"},
      {"measurement": "viability, T/C", "setting": "second compound 0.000949 µM, first compound 1 µM", "value": 107, "unit": "%"},
      {"measurement": "viability, T/C", "setting": "second compound 0.003 µM, first compound 0.00316 µM", "value": 114, "unit": "%"},
      {"measurement": "viability, T/C", "setting": "second compound 0.003 µM, first compound 0.01 µM", "value": 109, "unit": "%"},
      {"measurement": "viability, T/C", "setting": "second compound 0.003 µM, first compound 0.0316 µM", "value": 111, "unit": "%"},
      {"measurement": "viability, T/C", "setting": "second compound 0.003 µM, first compound 0.1 µM", "value": 109, "unit": "%"},
      {"measurement": "viability, T/C", "setting": "second compound 0.003 µM, first compound 0.316 µM", "value": 113, "unit": "%"},
      {"measurement": "viability, T/C", "setting": "second compound 0.003 µM, first compound 1 µM", "value": 103, "unit": "%"},
      {"measurement": "viability, T/C", "setting": "second compound 0.00949 µM, first compound 0.00316 µM", "value": 87.8, "unit": "%"},
      {"measurement": "viability, T/C", "setting": "second compound 0.00949 µM, first compound 0.01 µM", "value": 77.8, "unit": "%"},
      {"measurement": "viability, T/C", "setting": "second compound 0.00949 µM, first compound 0.0316 µM", "value": 81.5, "unit": "%"},
      {"measurement": "viability, T/C", "setting": "second compound 0.00949 µM, first compound 0.1 µM", "value": 66.7, "unit": "%"},
      {"measurement": "viability, T/C", "setting": "second compound 0.00949 µM, first compound 0.316 µM", "value": 73.8, "unit": "%"},
      {"measurement": "viability, T/C", "setting": "second compound 0.00949 µM, first compound 1 µM", "value": 69.3, "unit": "%"},
      {"measurement": "viability, T/C", "setting": "second compound 0.03 µM, first compound 0.00316 µM", "value": 43, "unit": "%"},
      {"measurement": "viability, T/C", "setting": "second compound 0.03 µM, first compound 0.01 µM", "value": 55.5, "unit": "%"},
      {"measurement": "viability, T/C", "setting": "second compound 0.03 µM, first compound 0.0316 µM", "value": 49.3, "unit": "%"},
      {"measurement": "viability, T/C", "setting": "second compound 0.03 µM, first compound 0.1 µM", "value": 42.7, "unit": "%"},
      {"measurement": "viability, T/C", "setting": "second compound 0.03 µM, first compound 0.316 µM", "value": 55.4, "unit": "%"},
      {"measurement": "viability, T/C", "setting": "second compound 0.03 µM, first compound 1 µM", "value": 49.4, "unit": "%"},
      {"measurement": "viability, T/C", "setting": "second compound 0.0949 µM, first compound 0.00316 µM", "value": 35, "unit": "%"},
      {"measurement": "viability, T/C", "setting": "second compound 0.0949 µM, first compound 0.01 µM", "value": 30.8, "unit": "%"},
      {"measurement": "viability, T/C", "setting": "second compound 0.0949 µM, first compound 0.0316 µM", "value": 42.2, "unit": "%"},
      {"measurement": "viability, T/C", "setting": "second compound 0.0949 µM, first compound 0.1 µM", "value": 37.5, "unit": "%"},
      {"measurement": "viability, T/C", "setting": "second compound 0.0949 µM, first compound 0.316 µM", "value": 49.4, "unit": "%"},
      {"measurement": "viability, T/C", "setting": "second compound 0.0949 µM, first compound 1 µM", "value": 35.9, "unit": "%"},
      {"measurement": "viability, T/C", "setting": "second compound 0.3 µM, first compound 0.00316 µM", "value": 40.3, "unit": "%"},
      {"measurement": "viability, T/C", "setting": "second compound 0.3 µM, first compound 0.01 µM", "value": 31.8, "unit": "%"},
      {"measurement": "viability, T/C", "setting": "second compound 0.3 µM, first compound 0.0316 µM", "value": 36, "unit": "%"},
      {"measurement": "viability, T/C", "setting": "second compound 0.3 µM, first compound 0.1 µM", "value": 42.6, "unit": "%"},
      {"measurement": "viability, T/C", "setting": "second compound 0.3 µM, first compound 0.316 µM", "value": 42.8, "unit": "%"},
      {"measurement": "viability, T/C", "setting": "second compound 0.3 µM, first compound 1 µM", "value": 43.4, "unit": "%"}
    ]},
    {"smiles": "CC1(C)CCC(Nc2ncc(C(F)(F)F)c(-c3c[nH]c4c(P(C)(C)=O)c(C#N)ccc34)n2)CN1", "note": "(centres undefined) + CCn1c(-c2cc(N3CCN(C)CC3)cnc2C(C)OC)c2c3cc(ccc31)-c1csc(n1)CC(NC(=O)C1CC1C)C(=O)N1CCCC(N1)C(=O)OCC(C)(C)C2", "values": [
      {"measurement": "IC50", "setting": "second compound 0.000949 µM", "value": 17.7, "unit": "nM"},
      {"measurement": "IC50", "setting": "second compound 0.003 µM", "value": 14.1, "unit": "nM"},
      {"measurement": "IC50", "setting": "second compound 0.00949 µM", "value": 7.66, "unit": "nM"},
      {"measurement": "IC50", "setting": "second compound 0.03 µM", "value": 7.94, "unit": "nM"},
      {"measurement": "IC50", "setting": "second compound 0.0949 µM", "value": "< 0.949", "unit": "nM"},
      {"measurement": "IC50", "setting": "second compound 0.3 µM", "value": "< 0.949", "unit": "nM"},
      {"measurement": "viability, T/C", "setting": "second compound 0.000949 µM, first compound 0.000949 µM", "value": 117, "unit": "%"},
      {"measurement": "viability, T/C", "setting": "second compound 0.000949 µM, first compound 0.003 µM", "value": 92.4, "unit": "%"},
      {"measurement": "viability, T/C", "setting": "second compound 0.000949 µM, first compound 0.00949 µM", "value": 65.2, "unit": "%"},
      {"measurement": "viability, T/C", "setting": "second compound 0.000949 µM, first compound 0.03 µM", "value": 35.7, "unit": "%"},
      {"measurement": "viability, T/C", "setting": "second compound 0.000949 µM, first compound 0.0949 µM", "value": 32.2, "unit": "%"},
      {"measurement": "viability, T/C", "setting": "second compound 0.000949 µM, first compound 0.3 µM", "value": 39.1, "unit": "%"},
      {"measurement": "viability, T/C", "setting": "second compound 0.003 µM, first compound 0.000949 µM", "value": 122, "unit": "%"},
      {"measurement": "viability, T/C", "setting": "second compound 0.003 µM, first compound 0.003 µM", "value": 98.1, "unit": "%"},
      {"measurement": "viability, T/C", "setting": "second compound 0.003 µM, first compound 0.00949 µM", "value": 56.4, "unit": "%"},
      {"measurement": "viability, T/C", "setting": "second compound 0.003 µM, first compound 0.03 µM", "value": 37, "unit": "%"},
      {"measurement": "viability, T/C", "setting": "second compound 0.003 µM, first compound 0.0949 µM", "value": 37.5, "unit": "%"},
      {"measurement": "viability, T/C", "setting": "second compound 0.003 µM, first compound 0.3 µM", "value": 39.6, "unit": "%"},
      {"measurement": "viability, T/C", "setting": "second compound 0.00949 µM, first compound 0.000949 µM", "value": 82.9, "unit": "%"},
      {"measurement": "viability, T/C", "setting": "second compound 0.00949 µM, first compound 0.003 µM", "value": 73.8, "unit": "%"},
      {"measurement": "viability, T/C", "setting": "second compound 0.00949 µM, first compound 0.00949 µM", "value": 44.6, "unit": "%"},
      {"measurement": "viability, T/C", "setting": "second compound 0.00949 µM, first compound 0.03 µM", "value": 38.6, "unit": "%"},
      {"measurement": "viability, T/C", "setting": "second compound 0.00949 µM, first compound 0.0949 µM", "value": 37.1, "unit": "%"},
      {"measurement": "viability, T/C", "setting": "second compound 0.00949 µM, first compound 0.3 µM", "value": 40.8, "unit": "%"},
      {"measurement": "viability, T/C", "setting": "second compound 0.03 µM, first compound 0.000949 µM", "value": 65.7, "unit": "%"},
      {"measurement": "viability, T/C", "setting": "second compound 0.03 µM, first compound 0.003 µM", "value": 61.7, "unit": "%"},
      {"measurement": "viability, T/C", "setting": "second compound 0.03 µM, first compound 0.00949 µM", "value": 47.6, "unit": "%"},
      {"measurement": "viability, T/C", "setting": "second compound 0.03 µM, first compound 0.03 µM", "value": 32.4, "unit": "%"},
      {"measurement": "viability, T/C", "setting": "second compound 0.03 µM, first compound 0.0949 µM", "value": 39, "unit": "%"},
      {"measurement": "viability, T/C", "setting": "second compound 0.03 µM, first compound 0.3 µM", "value": 40.1, "unit": "%"},
      {"measurement": "viability, T/C", "setting": "second compound 0.0949 µM, first compound 0.000949 µM", "value": 45.8, "unit": "%"},
      {"measurement": "viability, T/C", "setting": "second compound 0.0949 µM, first compound 0.003 µM", "value": 44.3, "unit": "%"},
      {"measurement": "viability, T/C", "setting": "second compound 0.0949 µM, first compound 0.00949 µM", "value": 39.2, "unit": "%"},
      {"measurement": "viability, T/C", "setting": "second compound 0.0949 µM, first compound 0.03 µM", "value": 39.3, "unit": "%"},
      {"measurement": "viability, T/C", "setting": "second compound 0.0949 µM, first compound 0.0949 µM", "value": 36.9, "unit": "%"},
      {"measurement": "viability, T/C", "setting": "second compound 0.0949 µM, first compound 0.3 µM", "value": 32.9, "unit": "%"},
      {"measurement": "viability, T/C", "setting": "second compound 0.3 µM, first compound 0.000949 µM", "value": 37.5, "unit": "%"},
      {"measurement": "viability, T/C", "setting": "second compound 0.3 µM, first compound 0.003 µM", "value": 46, "unit": "%"},
      {"measurement": "viability, T/C", "setting": "second compound 0.3 µM, first compound 0.00949 µM", "value": 42, "unit": "%"},
      {"measurement": "viability, T/C", "setting": "second compound 0.3 µM, first compound 0.03 µM", "value": 32.6, "unit": "%"},
      {"measurement": "viability, T/C", "setting": "second compound 0.3 µM, first compound 0.0949 µM", "value": 38.5, "unit": "%"},
      {"measurement": "viability, T/C", "setting": "second compound 0.3 µM, first compound 0.3 µM", "value": 39.2, "unit": "%"}
    ]}
  ]
}
